These results are taken from patent publication US8273774B2, “Phenoxypyridinylamide compounds” (AstraZeneca AB, priority 2008, dated 2012).

The test concerns the target recombinant Human Phosphodiesterase B2 (PDE4B2) (Homo sapiens, UniProt Q07343). In words: Human Phosphodiesterase B2 Radiometric Assay. Type of test: biochemical. Particulars: 0.1 μg/mL recombinant PDE4B2; preincubated at 30 C for 30 min; [3H]cyclic AMP 8 nM, stopped after 20 min; yttrium silicate SPA beads; read-out: PDE4B2 pIC50 (converted). As to the method: Human Phosphodiesterase B2 Radiometric Assay
The assay uses recombinant Human Phosphodiesterase B2 (PDE4B2) produced in house (PrAZL0163), stored at −20° C. This assay is based on the observation that 5′AMP, the product of the reaction catalysed by PDE4, binds preferentially to yttrium silicate SPA beads (Amersham Biosciences, UK) compared to the substrate, cAMP. Compounds at the appropriate concentration were preincubated at 30 C for 30 min with an assay buffer containing 50 mM HEPES (pH 7.5), 8.3 mM MgCl2, 1.7 mM EGTA, 0.01% (w/v) Brij®35 and 0.1 μg/mL recombinant PDE4B2. The reaction was started by the addition of [3H]cyclic AMP to give a final concentration of 8 nM, and was stopped 20 min after the addition of the substrate by the addition of yttrium silicate SPA beads containing 18 mM Zn SO4. Bound […] was measured using a Topcount NXT (Packard Bioscience, UK). pIC50 values (presented in Table 2) were determined using Xlfit3 curve fitting, using model 205.

Sequence of recombinant Human Phosphodiesterase B2 (PDE4B2) (Q07343 1-564 isoform Q07343-2): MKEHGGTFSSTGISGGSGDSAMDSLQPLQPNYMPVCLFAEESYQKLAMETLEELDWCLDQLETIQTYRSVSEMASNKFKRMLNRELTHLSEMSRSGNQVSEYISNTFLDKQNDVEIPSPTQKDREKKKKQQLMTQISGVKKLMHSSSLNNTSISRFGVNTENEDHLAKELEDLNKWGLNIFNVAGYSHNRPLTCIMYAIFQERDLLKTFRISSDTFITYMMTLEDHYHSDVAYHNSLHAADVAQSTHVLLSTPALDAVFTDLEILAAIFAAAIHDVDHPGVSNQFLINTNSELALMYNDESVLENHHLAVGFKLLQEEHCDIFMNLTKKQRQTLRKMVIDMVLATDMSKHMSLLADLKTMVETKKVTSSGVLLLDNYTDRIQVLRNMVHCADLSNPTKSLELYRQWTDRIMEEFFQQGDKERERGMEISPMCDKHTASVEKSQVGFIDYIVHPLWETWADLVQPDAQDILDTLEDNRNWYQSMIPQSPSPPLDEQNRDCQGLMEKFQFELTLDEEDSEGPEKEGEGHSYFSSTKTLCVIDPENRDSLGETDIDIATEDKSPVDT

Regarding `COc1c(CN2C[C@@H](C)N[C@@H](C)C2)cccc1-c1cccc(Oc2ncc(F)cc2C(=O)N[C@H]2CC[C@@H](NC(=O)c3cc(C)n(C)n3)CC2)c1` [Example 106, N-((1s,4s)-4-(1,5-dimethyl-1H-pyrazole-3-carboxamido)cyclohexyl)-2-(3′-(((3S,5R)-3,5-dimethylpiperazin-1-yl)methyl)-2′-methoxybiphenyl-3-yloxy)-5-fluoronicotinamide], the IC50 is 0.251 nM.

For the molecule `CN(C)CCN(C)Cc1ccc(-c2cccc(Oc3ncc(F)cc3C(=O)N[C@H]3CC[C@@H](NC(=O)c4cn5c(n4)CCCC5)CC3)c2)cc1` [Example 105, N-((1s,4s)-4-(2-(4′-(((2-(dimethylamino)ethyl)(methyl)amino)methyl)biphenyl-3-yloxy) 5-fluoronicotinamido)cyclohexyl)-5,6,7,8-tetrahydroimidazo[1,2-a]pyridine-2-carboxamide], the IC50 is 0.631 nM. Turning to `Cc1ccc(O)c(C(=O)N[C@H]2CC[C@@H](NC(=O)c3cc(F)cnc3Oc3cccc(-c4ccc(O)cc4CN4CCOCC4)c3)CC2)c1` [Example 28, 5-fluoro-2-(4′-hydroxy-2′-(morpholinomethyl)biphenyl-3-yloxy)-N-((1s,4s)-4-(2-hydroxy-5-methylbenzamido)cyclohexyl)nicotinamide], the IC50 is 0.0251 nM.

With `Cc1cccc(C(=O)N[C@H]2CC[C@@H](NC(=O)c3cc(F)cnc3Oc3cccc(-c4ccc(O)c(CN5C[C@@H](C)N[C@@H](C)C5)c4)c3)CC2)n1` [Example 89, N-((1s,4s)-4-(2-(3′-(((3S,5R)-3,5-dimethylpiperazin-1-yl)methyl)-4′-hydroxybiphenyl-3-yloxy)-5-fluoronicotinamido)cyclohexyl)-6-methylpicolinamide], the IC50 was 0.0794 nM. Turning to `Cc1cc(C(=O)N[C@H]2CC[C@@H](NC(=O)c3cc(F)cnc3Oc3cccc(-c4cccc(CCCN5C[C@@H](C)N[C@@H](C)C5)c4)c3)CC2)nn1C` [Example 126, N-((1s,4s)-4-(1,5-dimethyl-1H-pyrazole-3-carboxamido)cyclohexyl)-2-(3′-(3-((3S,5R)-3,5-dimethylpiperazin-1-yl)propyl)biphenyl-3-yloxy)-5-fluoronicotinamide], the IC50 is 0.0501 nM. Consider `O=C(N[C@H]1CC[C@@H](NC(=O)c2cc(F)cnc2Oc2cccc(-c3ccc(CN4CCNCC4)cc3)c2)CC1)c1cc2n(n1)CCCC2` [Example 114, N-((1s,4s)-4-(5-fluoro-2-(4′-(piperazin-1-ylmethyl)biphenyl-3-yloxy)nicotinamido)cyclohexyl)-4,5,6,7-tetrahydropyrazolo[1,5-a]pyridine-2-carboxamide], for which the IC50 was 0.158 nM. On to `CN(C)Cc1cc(O)ccc1-c1cccc(Oc2ncc(F)cc2C(=O)N[C@H]2CC[C@@H](NC(=O)c3cccc4[nH]cnc34)CC2)c1` [Example 52, N-((1s,4s)-4-(2-(2′-((dimethylamino)methyl)-4′-hydroxybiphenyl-3-yloxy)-5-fluoronicotinamido)cyclohexyl)-1H-benzo[d]imidazole-4-carboxamide], for which the IC50 was 0.0501 nM.

In the case of `Cc1cccc(C(=O)N[C@H]2CC[C@@H](NC(=O)c3cc(F)cnc3Oc3cccc(-c4ccc(O)cc4CN4CCCOCC4)c3)CC2)n1` [Example 14, N-((1s,4s)-4-(2-(2′-((1,4-oxazepan-4-yl)methyl)-4′-hydroxybiphenyl-3-yloxy)-5-fluoronicotinamido)cyclohexyl)-6-methylpicolinamide], the IC50 is 0.02 nM.

For the molecule `O=C(N[C@H]1CC[C@@H](NC(=O)c2cc(F)cnc2Oc2cccc(-c3ccc(CCCN4CCNCC4)cc3)c2)CC1)c1cc2ccccn2n1` [Example 132, N-((1s,4s)-4-(5-fluoro-2-(4′-(3-(piperazin-1-yl)propyl)biphenyl-3-yloxy)nicotinamido)cyclohexyl)pyrazolo[1,5-a]pyridine-2-carboxamide], the IC50 is 0.0398 nM. With `CN(C)Cc1cc(O)ccc1-c1cccc(Oc2ncc(F)cc2C(=O)N[C@H]2CC[C@@H](NC(=O)c3cn4cc(F)ccc4n3)CC2)c1` [Example 12, N-((1s,4s)-4-(2-(2′-((dimethylamino)methyl)-4′-hydroxybiphenyl-3-yloxy)-5-fluoronicotinamido)cyclohexyl)-6-fluoroimidazo[1,2-a]pyridine-2-carboxamide] the figure was 0.0501 nM; with `CN1CCCN(CCc2ccc(-c3cccc(Oc4ncc(F)cc4C(=O)N[C@H]4CC[C@@H](NC(=O)c5cc6n(n5)CCCC6)CC4)c3)cc2)CC1` [Example 171, N-((1s,4s)-4-(5-Fluoro-2-(4′-(2-(4-methyl-1,4-diazepan-1-yl)ethyl)biphenyl-3-yloxy)nicotinamido)cyclohexyl)-4,5,6,7-tetrahydropyrazolo[1,5-a]pyridine-2-carboxamide], 0.0794 nM; with `C[C@@H]1CN(Cc2cc(-c3cccc(Oc4ncc(F)cc4C(=O)N[C@H]4CC[C@@H](NC(=O)c5cnn6cccnc56)CC4)c3)ccc2O)C[C@H](C)N1` [Example 125, N-((1s,4s)-4-(2-(3′-(((3S,5R)-3,5-dimethylpiperazin-1-yl)methyl)-4′-hydroxybiphenyl-3-yloxy)-5-fluoronicotinamido)cyclohexyl)pyrazolo[1,5-a]pyrimidine-3-carboxamide], 0.0631 nM. Take `Cc1cc(C)n2ncc(C(=O)N[C@H]3CC[C@@H](NC(=O)c4cc(F)cnc4Oc4cccc(-c5ccc(CN6C[C@@H](C)N[C@@H](C)C6)cc5CN5CCSCC5)c4)CC3)c2n1` [Example 193, N-((1s,4s)-4-(2-(4′-(((3S,5R)-3,5-dimethylpiperazin-1-yl)methyl)-2′-(thiomorpholinomethyl)biphenyl-3-yloxy)-5-fluoronicotinamido)cyclohexyl)-5,7-dimethylpyrazolo[1,5-a]pyrimidine-3-carboxamide]: the IC50 was 0.0251 nM. `O=C(N[C@H]1CC[C@@H](NC(=O)c2cc(F)cnc2Oc2cccc(-c3ccc(CCCN4CCNCC4)cc3)c2)CC1)c1csc(CO)n1` [Example 141, N-((1s,4s)-4-(5-fluoro-2-(4′-(3-(piperazin-1-yl)propyl)biphenyl-3-yloxy)nicotinamido)cyclohexyl)-2-(hydroxymethyl)thiazole-4-carboxamide]: the IC50 was 0.0631 nM. The result for `Cc1nc(C(=O)N[C@H]2CC[C@@H](NC(=O)c3cc(F)cnc3Oc3cccc(-c4ccc(CN5C[C@@H](C)N[C@@H](C)C5)cc4)c3)CC2)cs1` [Example 54, N-((1s,4s)-4-(2-(4′-(((3S,5R)-3,5-dimethylpiperazin-1-yl)methyl)biphenyl-3-yloxy)-5-fluoronicotinamido)cyclohexyl)-2-methylthiazole-4-carboxamide] reads 0.0631 nM; that for `Cc1nc(C(=O)N[C@H]2CC[C@@H](NC(=O)c3cc(F)cnc3Oc3cccc(-c4ccc(CCN5CCCN(C)CC5)cc4)c3)CC2)cs1` [Example 87, N-((1s,4s)-4-(5-fluoro-2-(4′-(2-(4-methyl-1,4-diazepan-1-yl)ethyl)biphenyl-3-yloxy)nicotinamido)cyclohexyl)-2-methylthiazole-4-carboxamide], 0.0251 nM. With `O=C(N[C@H]1CC[C@@H](NC(=O)c2cc(F)cnc2Oc2cccc(-c3ccc(CCCN4CCNCC4)cc3)c2)CC1)c1cc2n(n1)CCCC2` [Example 118, N-((1s,4s)-4-(5-fluoro-2-(4′-(3-(piperazin-1-yl)propyl)biphenyl-3-yloxy)nicotinamido)cyclohexyl)-4,5,6,7-tetrahydropyrazolo[1,5-a]pyridine-2-carboxamide] the figure was 0.0398 nM.
